The text below walks through data of US20190203253A1, “METHODS OF IDENTIFYING AND TREATING CANCER PATIENTS WITH AN EPHB6 DEFICIENCY” (University of Saskatchewan, priority 2016, published 2019).

Structures are written as SMILES. “Also recorded” adds a separate entry of the source.

Assay [1] concerns MDA-pc3 and MDA-B6 TNBC tumors. As to the kind of experiment: Tumor xenograft study, tumor growth. The class given is in vivo, NOD-SCID mice. The note with it: 5 mg/kg orally twice a day, MDA-pc3 vs MDA-B6 xenografts (FIG. 7A). The protocol:
FIG. 7. Analysis of the SL interaction between EPHB6 and SRC in TNBC cells and murine xenografts. A. MDA-pc3 and MDA-B6 cells were injected into the mammary fat pad region of 4-6 weeks old NOD-SCID mice (1×10^6 cells per mouse). Mice with detectable tumors were treated twice per day with 5 mg/kg KX2-391 in DMSO/water solvent or solvent alone by oral feeding (at least 6 animals per each experimental condition). Tumor size was measured every 3 days and tumor volume was calculated with the equation: A/2*B^2, where A was long and B was short diameter of the tumor. The reduction in tumor growth in KX2-391-treated mice is presented as a percentage relative to matching solvent controls. The graph summarizes two independent experiments. […] Four representative fields (at 3, 6, 9, and 12 o'clock) per each stained tumor section (one for each extracted tumor) were imaged at 100× magnification and the blood vessel density per each field was analyzed with the Image-Pro Premier software. […]
Breeder pairs of NOD SCID gamma mice were purchased from The Jackson Laboratory and a colony was established at the Laboratory Animal Services Unit, University of Saskatchewan. […] Digital caliper measurements were taken every 3 days and tumor volume was calculated by the formula A/2*B^2 (where A and B were the long and short diameters of the tumor respectively). […]

Assay [2] relates to BT-20 cells (EPHB6-targeting shRNA vs non-silencing shRNA). As to the kind of experiment: Drug sensitivity assay (resazurin), SRC inhibitors, BT-20 cells with silenced EPHB6. The class given is cell-based, human. The note with it: BT-20 with EPHB6-targeting shRNA vs non-silencing shRNA, 96 h (FIGS. 6A-6E). The protocol: FIG. 6. SL relation between EPHB6 and SRC in BT-20 TNBC cells. A. Triple negative breast cancer cells, BT-20, were transduced with EPHB6-targeting shRNA (BT20-66-shRNA), or non-silencing shRNA (BT2O-NS). EPHB6 expression was analyzed by Western blotting with anti-EPHB6. Western blotting with anti-tubulin was used as a loading control. B. BT20-66-shRNA and BT2O-NS cells were cultured in 96-well plates with indicated concentrations of SU6656 or matching volumes of DMSO for 96 h. Cells were stained with resazurin and fluorescence was measured using a SpectraMax M5 plate reader to determine cell suppression. Five wells were analyzed per condition. […] C. […] Cells were stained with resazurin and fluorescence was measured using a SpectraMax M5 plate reader to determine cell suppression. Five wells were analyzed per condition. […] PI-stained cells were counted in at least 10 randomly captured frames. […] Stained cells were analyzed by flow cytometry and the FlowJo software. […]
MDA-MB-231 and BT-20 cell monolayers were incubated in 96-well plates for 72 h and 96 h, respectively, with indicated concentrations of KX2-391 or SU6656, or matching volumes of DMSO as a solvent control. Treated cells were stained using resazurin by following the manufacturer's instructions and fluorescence was measured using a SpectraMax M5 microplate reader.
Background: Resazurin is reduced to fluorescent resorufin, in cell work by metabolically active cells.

Assay [3] concerns MDA-pc3 and MDA-B6 cells (MDA-MB-231). As to the kind of experiment: Drug sensitivity assay (resazurin), SRC inhibitors, MDA-MB-231-derived cells. The class given is cell-based, human. The note with it: MDA-pc3 vs MDA-B6, increasing concentrations, 72 h, resazurin (FIG. 4A, 4B). As for the experimental part:
FIG. 4. […] C. […] All experiments were performed at least three times.

Consider `O=C(Cc1ccc(-c2ccc(OCCN3CCOCC3)cc2)cn1)NCc1ccccc1` [KX2-391], for which the “suppression of tumor growth, EPHB6-deficient vs EPHB6-expressing tumors” value in assay [1] is “more efficiently suppresses growth of EPHB6-deficient TNBC tumors; also recorded: significantly more effective in suppressing EPHB6-deficient TNBC tumors”. Besides, the “cell suppression after silencing of EPHB6 expression” value in assay [2] was “strongly increased their suppression”. Besides, the “cell suppression relative to DMSO control, EPHB6-deficient vs EPHB6-expressing cells” value in assay [3] is listed as “significantly stronger suppression of EPHB6-deficent cells”.
